Laboratory results taken from patent US9309263B2, “Fused multi-cyclic sulfone compounds as inhibitors of beta-secretase and methods of use thereof” (AMGEN INC., priority 2013, dated 2016).
pIC50: −log10 of the molar value. Read-outs that look alike come from different tables or passages of the source.

Legend:
[1] = biological target: Cathepsin D (Cat D) (Homo sapiens, UniProt P07339); experiment: In vitro enzymatic Cathepsin D (Cat D) FRET assay; type: biochemical
Summary of the method: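 Recombinant CHO-expressed enzyme (9 nM) pre-incubated 1 h with serially diluted inhibitor in 0.05 M citrate pH 3.5, 10% DMSO final, 5 mM CHAPS. Reaction started with 20 nM FRET peptide substrate, run 1 h, stopped with Tris to neutral pH; fluorescence read at ex 500/em 580 nm.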

[2] = biological target: Beta Secretase enzyme (BACE) (Homo sapiens, UniProt P56817); experiment: In vitro enzymatic BACE FRET assay; type: biochemical; settings: read-out: BACE1 FRET assay IC50
Sequence of Beta Secretase enzyme (BACE) (P56817 46-501): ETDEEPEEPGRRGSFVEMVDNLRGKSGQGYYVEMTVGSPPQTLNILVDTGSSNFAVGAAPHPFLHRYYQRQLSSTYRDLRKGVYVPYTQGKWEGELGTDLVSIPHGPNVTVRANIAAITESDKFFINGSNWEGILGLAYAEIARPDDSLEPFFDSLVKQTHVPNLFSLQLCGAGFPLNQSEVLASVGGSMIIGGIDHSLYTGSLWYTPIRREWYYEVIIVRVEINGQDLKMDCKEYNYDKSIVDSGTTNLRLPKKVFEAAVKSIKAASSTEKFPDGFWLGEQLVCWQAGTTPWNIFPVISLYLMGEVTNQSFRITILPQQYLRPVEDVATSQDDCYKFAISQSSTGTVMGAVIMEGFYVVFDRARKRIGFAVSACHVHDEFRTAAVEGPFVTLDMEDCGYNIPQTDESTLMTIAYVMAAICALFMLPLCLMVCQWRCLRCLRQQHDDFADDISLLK
Summary of the method: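 Enzyme (0.2 nM) pre-incubated 1 h with serially diluted inhibitors in 0.05 M acetate pH 4.2, 10% DMSO, 100 uM genapol. Reaction started with 50 nM fluorophore/quencher peptide FRET substrate, run 1 h, stopped with Tris to neutral pH. Fluorescence read at excitation 488 nm, […].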

[3] = system: Aβ 40 in conditioned medium of cells stably expressing Amyloid Precursor Protein (APP); experiment: In vitro BACE cell-based assay (Aβ 40 sandwich ELISA); settings: Homo sapiens, HEK293
Summary of the method: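 APP-expressing cells, 24 h pre-culture in DMEM/10% FBS, treated 24 h with 10-point compound dilutions from 100 or 10 μM top, 0.1% DMSO final. Secreted Aβ40 quantified by sandwich ELISA (pAb40 capture, biotinylated 6E10 detection, europium TRF); IC50 from percent inhibition versus concentration.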

[4] = text summary referring to data in Table 2
[5] = Cathepsin D FRET assay, read-out: CatD IC50
[6] = average IC50, in vitro enzymatic BACE FRET assay
[7] = average IC50, HEK cell assay, Aβ 40 readout

Sequence of Cathepsin D (Cat D) (P07339 65-412, species assumed): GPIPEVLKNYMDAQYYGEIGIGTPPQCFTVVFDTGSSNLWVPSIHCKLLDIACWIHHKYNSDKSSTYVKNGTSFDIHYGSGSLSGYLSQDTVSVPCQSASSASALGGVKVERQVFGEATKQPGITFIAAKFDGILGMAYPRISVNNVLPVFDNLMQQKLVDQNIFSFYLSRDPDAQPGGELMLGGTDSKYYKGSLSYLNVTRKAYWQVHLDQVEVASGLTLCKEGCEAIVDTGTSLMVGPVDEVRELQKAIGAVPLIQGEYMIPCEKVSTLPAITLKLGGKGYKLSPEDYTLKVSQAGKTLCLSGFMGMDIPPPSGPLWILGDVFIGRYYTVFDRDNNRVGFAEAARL

SMILES | pIC50 ([1]; read-out: CatD IC50) | pIC50 [1, 4] | pIC50 ([2]; average IC50) | pIC50 ([3]; HEK cell, average IC50) | pIC50 [1, 5] | pIC50 [2, 6] | pIC50 [3, 7] | pIC50 ([3]; HEK cells, average IC50)
CC#C[C@@H](C)Oc1cnc(C(=O)Nc2ccc3c(c2)[C@@]2(C)N=C(N)C(C)(C)S(=O)(=O)[C@@H]2CCO3)cn1 [Example 16, N-((4aR,11bR)-2-amino-3,3,11b-trimethyl-4,4-dioxido-4a,5,6,11b-tetrahydro-3H-[1]benzoxepino[4,5-b][1,4]thiazin-10-yl)-5-(((1R)-1-methyl-2-butyn-1-yl)oxy)-2-pyrazinecarboxamide] | 3.01 | < 3.10 | 7.52 | 6.86 |  |  |  | 
CC#C[C@H](C)Oc1ccc(C(=O)Nc2ccc3c(c2)[C@@]2(C)N=C(N)C(C)(C)S(=O)(=O)[C@@H]2CCO3)nc1 (single isomer, unassigned) [Example 69] | 3.09 |  | 7.09 | 6.00 |  |  |  | 
COc1cnc(C(=O)Nc2ccc3c(c2)[C@@]2(C)N=C(N)C(C)(C)S(=O)(=O)[C@H]2CCC3)cn1 [Example 8, N-((4aS,11bR)-2-amino-3,3,11b-trimethyl-4,4-dioxido-3,4a,5,6,7,11b-hexahydrobenzo[3,4]cyclohepta[1,2-b][1,4]thiazin-10-yl)-5-methoxy-2-pyrazinecarboxamide] | 2.72 | < 2.92 | 6.76 | 7.51 |  |  |  | 
C#CCOc1cnc(C(=O)Nc2ccc3c(c2)[C@@]2(C)N=C(N)C(C)(C)S(=O)(=O)[C@@H]2C[C@H](C)O3)cn1 [Example 142, N-((4aR,6S,11bR)-2-amino-3,3,6,11b-tetramethyl-4,4-dioxido-4a,5,6,11b-tetrahydro-3H-[1]benzoxepino[4,5-b][1,4]thiazin-10-yl)-5-(2-propyn-1-yloxy)-2-pyrazinecarboxamide] |  |  |  |  | 3.67 | 9.00 | 9.30 | 
Cc1cc(C#N)cnc1C(=O)Nc1ccc2c(c1)[C@@]1(C)N=C(N)C(C)(C)S(=O)(=O)[C@H]1CCC2 [Example 37, N-((4aS,11bR)-2-amino-3,3,11b-trimethyl-4,4-dioxido-3,4a,5,6,7,11b-hexahydrobenzo[3,4]cyclohepta[1,2-b][1,4]thiazin-10-yl)-5-cyano-3-methyl-2-pyridinecarboxamide] | < 3.40 |  | 7.44 | 7.80 |  |  |  | 
CC#CCOc1cnc(C(=O)Nc2ccc3c(c2)[C@@]2(C)N=C(N)C(C)(C)S(=O)(=O)[C@H]2CC(C)(C)O3)cn1 [Example 102, N-((4aS,11bR)-2-amino-3,3,6,6,11b-pentamethyl-4,4-dioxido-4a,5,6,11b-tetrahydro-3H-[1]benzoxepino[4,5-b][1,4]thiazin-10-yl)-5-(2-butyn-1-yloxy)-2-pyrazinecarboxamide] |  |  |  |  | 3.55 | 9.00 | 8.70 | 
Cc1cc(C(F)F)cnc1C(=O)Nc1ccc2c(c1)[C@@]1(C)N=C(N)C(C)(C)S(=O)(=O)[C@@H]1CCO2 [Example 163, N-((4aR,11bR)-2-amino-3,3,11b-trimethyl-4,4-dioxido-4a,5,6,11b-tetrahydro-3H-[1]benzoxepino[4,5-b][1,4]thiazin-10-yl)-5-(difluoromethyl)-3-methyl-2-pyridinecarboxamide] | < 3.40 |  | 8.30 |  |  |  |  | 8.52
CC1(C)C(N)=N[C@]2(C)c3cc(NC(=O)c4cc5ccccc5cn4)ccc3OCC[C@H]2S1(=O)=O [Example 30, N-((4aR,11bR)-2-amino-3,3,11b-trimethyl-4,4-dioxido-4a,5,6,11b-tetrahydro-3H-[1]benzoxepino[4,5-b][1,4]thiazin-10-yl)-3-isoquinolinecarboxamide] | 2.97 | < 2.92 | 7.08 | 7.24 |  |  |  | 
COc1cnc(C(=O)Nc2ccc3c(c2)[C@@]2(C)N=C(N)C(C)(C)S(=O)(=O)[C@@H]2CC(C)(C)O3)cn1 [Example 100, N-((4aR,11bR)-2-amino-3,3,6,6,11b-pentamethyl-4,4-dioxido-4a,5,6,11b-tetrahydro-3H-[1]benzoxepino[4,5-b][1,4]thiazin-10-yl)-5-methoxy-2-pyrazinecarboxamide] |  | < 2.92 |  |  | 2.87 | 7.60 | 7.92 | 
Cc1cc(C(F)(F)F)cnc1C(=O)Nc1ccc2c(c1)[C@@]1(C)N=C(N)C(C)(C)S(=O)(=O)[C@]1(F)CCO2 [Example 93, N-((4aR,11bR)-2-amino-4a-fluoro-3,3,11b-trimethyl-4,4-dioxido-4a,5,6,11b-tetrahydro-3H-[1]benzoxepino[4,5-b][1,4]thiazin-10-yl)-3-methyl-5-(trifluoromethyl)-2-pyridinecarboxamide] |  |  |  |  | 3.29 | 7.96 | 7.27 | 
Cc1cc(C#N)cnc1C(=O)Nc1ccc2c(c1)[C@@]1(C)N=C(N)C(C)(C)S(=O)(=O)[C@]1(F)CCO2 [Example 111, N-((4aR,11bR)-2-amino-4a-fluoro-3,3,11b-trimethyl-4,4-dioxido-4a,5,6,11b-tetrahydro-3H-[1]benzoxepino[4,5-b][1,4]thiazin-10-yl)-5-cyano-3-methyl-2-pyridinecarboxamide] |  |  |  |  | 3.48 | 8.30 | 7.72 | 
Cc1cc(C#N)cnc1C(=O)Nc1ccc2c(c1)[C@@]1(C)N=C(N)C(C)(C)S(=O)(=O)[C@@H]1CCC2 [Example 12, N-((4aR,11bR)-2-amino-3,3,11b-trimethyl-4,4-dioxido-3,4a,5,6,7,11b-hexahydrobenzo[3,4]cyclohepta[1,2-b][1,4]thiazin-10-yl)-5-cyano-3-methyl-2-pyridinecarboxamide] | 2.98 | < 2.92 | 8.52 | 9.00 |  |  |  | 
Cc1cc(C(F)(F)F)cnc1C(=O)Nc1ccc2c(c1)[C@@]1(C)N=C(N)C(C)(C)S(=O)(=O)[C@H]1CC(C)(C)O2 [Example 103, N-((4aS,11bR)-2-amino-3,3,6,6,11b-pentamethyl-4,4-dioxido-4a,5,6,11b-tetrahydro-3H-[1]benzoxepino[4,5-b][1,4]thiazin-10-yl)-3-methyl-5-(trifluoromethyl)-2-pyridinecarboxamide] |  |  |  |  | 3.84 | 7.74 | 7.64 | 
COc1cnc2c(Nc3ccc4c(c3)[C@@]3(C)N=C(N)C(C)(C)S(=O)(=O)[C@@H]3CCO4)nccc2n1 [Example 156, (4aR,11bR)-N^~10^~-(2-methoxypyrido[3,4-b]pyrazin-5-yl)-3,3,11b-trimethyl-4a,5,6,11b-tetrahydro-3H-[1]benzoxepino[4,5-b][1,4]thiazine-2,10-diamine 4,4-dioxide] |  |  |  |  | 2.99 | 7.96 | 7.85 | 
CC#CCOc1cnc(C(=O)Nc2ccc3c(c2)[C@@]2(C)N=C(N)C(C)(C)S(=O)(=O)[C@@H]2C[C@H](C)O3)cn1 [Example 51, N-((4aR,6S,11bR)-2-amino-3,3,6,11b-tetramethyl-4,4-dioxido-4a,5,6,11b-tetrahydro-3H-[1]benzoxepino[4,5-b][1,4]thiazin-10-yl)-5-(2-butyn-1-yloxy)-2-pyrazinecarboxamide] | 3.34 |  | 9.00 | 9.40 |  |  |  | 
C[C@H]1C[C@@H]2[C@](C)(N=C(N)C(C)(C)S2(=O)=O)c2cc(NC(=O)c3cnc(OCc4cnn(C)c4)cn3)ccc2O1 [Example 81, N-((4aR,6S,11bR)-2-amino-3,3,6,11b-tetramethyl-4,4-dioxido-4a,5,6,11b-tetrahydro-3H-[1]benzoxepino[4,5-b][1,4]thiazin-10-yl)-5-((1-methyl-1H-pyrazol-4-yl)methoxy)-2-pyrazinecarboxamide] |  | < 2.92 |  |  | 2.88 | 7.80 | 7.14 | 
